In PubChem BioAssay AID1918934 (Molecular Pharmacology Branch, DTP, NCI, 2023):

System: 292921-168-R-J2-PDC complex spheroid viability
Experiment: Anticancer human tumor 292921-168-R-J2-PDC patient-derived pancreatic carcinoma cell line growth inhibition
Settings: for IC50: curve of first compound; for viability, T/C: stronger effect = lower value
In short: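 Drug combinations with the LSD1 inhibitor iadademstat tested on tumor cells co-cultured as spheroids with endothelial cells and mesenchymal stem cells. Concentrations descended in half-log increments from clinical Cmax or 10 microM.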

[1] = second compound 0.1 µM, first compound 0.0316 µM
[2] = second compound 0.1 µM, first compound 0.1 µM
[3] = second compound 0.1 µM, first compound 0.316 µM
[4] = second compound 0.1 µM, first compound 1 µM
[5] = second compound 0.1 µM, first compound 3.16 µM
[6] = second compound 0.1 µM, first compound 10 µM
[7] = second compound 0.316 µM, first compound 0.0316 µM
[8] = second compound 0.316 µM, first compound 0.1 µM
[9] = second compound 0.316 µM, first compound 0.316 µM
[10] = second compound 0.316 µM, first compound 1 µM
[11] = second compound 0.316 µM, first compound 3.16 µM
[12] = second compound 0.316 µM, first compound 10 µM
[13] = second compound 1 µM, first compound 0.0316 µM
[14] = second compound 1 µM, first compound 0.1 µM
[15] = second compound 1 µM, first compound 0.316 µM
[16] = second compound 1 µM, first compound 1 µM
[17] = second compound 1 µM, first compound 3.16 µM
[18] = second compound 1 µM, first compound 10 µM
[19] = second compound 3.16 µM, first compound 0.0316 µM
[20] = second compound 3.16 µM, first compound 0.1 µM
[21] = second compound 3.16 µM, first compound 0.316 µM
[22] = second compound 3.16 µM, first compound 1 µM
[23] = second compound 3.16 µM, first compound 3.16 µM
[24] = second compound 3.16 µM, first compound 10 µM
[25] = second compound 10 µM, first compound 0.0316 µM
[26] = second compound 10 µM, first compound 0.1 µM
[27] = second compound 10 µM, first compound 0.316 µM
[28] = second compound 10 µM, first compound 1 µM
[29] = second compound 10 µM, first compound 3.16 µM
[30] = second compound 10 µM, first compound 10 µM
[31] = second compound 0.1 µM, first compound 0.00949 µM
[32] = second compound 0.1 µM, first compound 0.03 µM
[33] = second compound 0.1 µM, first compound 0.0949 µM
[34] = second compound 0.1 µM, first compound 0.3 µM
[35] = second compound 0.316 µM, first compound 0.00949 µM
[36] = second compound 0.316 µM, first compound 0.03 µM
[37] = second compound 0.316 µM, first compound 0.0949 µM
[38] = second compound 0.316 µM, first compound 0.3 µM
[39] = second compound 1 µM, first compound 0.00949 µM
[40] = second compound 1 µM, first compound 0.03 µM
[41] = second compound 1 µM, first compound 0.0949 µM
[42] = second compound 1 µM, first compound 0.3 µM
[43] = second compound 3.16 µM, first compound 0.00949 µM
[44] = second compound 3.16 µM, first compound 0.03 µM
[45] = second compound 3.16 µM, first compound 0.0949 µM
[46] = second compound 3.16 µM, first compound 0.3 µM
[47] = second compound 10 µM, first compound 0.00949 µM
[48] = second compound 10 µM, first compound 0.03 µM
[49] = second compound 10 µM, first compound 0.0949 µM
[50] = second compound 10 µM, first compound 0.3 µM
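Note: seven day compound exposure before luminescent viability read.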
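Throughout, for viability, T/C: 100% = DMSO vehicle control wells.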

Compound CC1(C)CCC(CN2CCN(c3ccc(C(=O)NS(=O)(=O)c4ccc(NCC5CCOCC5)c([N+](=O)[O-])c4)c(Oc4cnc5[nH]ccc5c4)c3)CC2)=C(c2ccc(Cl)cc2)C1 + NC1CCC(NC2CC2c2ccccc2)CC1 has an IC50 (second compound 0.1 µM) of 1640 nM, an IC50 (second compound 0.316 µM) of 1310 nM and an IC50 (second compound 1 µM) of 1330 nM. The IC50 (second compound 3.16 µM) was 1260 nM, the IC50 (second compound 10 µM) was 1110 nM and the viability, T/C [1] was 63.5%. It also gave a viability, T/C [2] of 71.4%, a viability, T/C [3] of 73.3% and a viability, T/C [4] of 72.4%. The viability, T/C [5] was 23.2%, the viability, T/C [6] was 0.18% and the viability, T/C [7] was 66.3%. For the same compound, the viability, T/C [8] was 60.1%, the viability, T/C [9] was 68.2% and the viability, T/C [10] was 60.1%. It also gave a viability, T/C [11] of 15.8%, a viability, T/C [12] of 0.25% and a viability, T/C [13] of 53%. For the same compound, the viability, T/C [14] was 58.8%, the viability, T/C [15] was 65.4% and the viability, T/C [16] was 67.6%. The viability, T/C [17] was 16.2%, the viability, T/C [18] was 0.26% and the viability, T/C [19] was 58.1%. It also gave a viability, T/C [20] of 60.9%, a viability, T/C [21] of 62.3% and a viability, T/C [22] of 59.4%. It also gave a viability, T/C [23] of 12.2%, a viability, T/C [24] of 0.14% and a viability, T/C [25] of 64.2%. The viability, T/C [26] was 64%, the viability, T/C [27] was 66.4% and the viability, T/C [28] was 53.4%. The viability, T/C [29] was 12.7% and the viability, T/C [30] was 0.23%.
For CC1COCCN1c1cc(C2(S(C)(=N)=O)CC2)nc(-c2ccnc3[nH]ccc23)n1 (stereo not given) + NC1CCC(NC2CC2c2ccccc2)CC1, the IC50 (second compound 0.1 µM) was 351 nM, the IC50 (second compound 0.316 µM) was 212 nM and the IC50 (second compound 1 µM) was 200 nM. For the same compound, the IC50 (second compound 3.16 µM) was 163 nM, the IC50 (second compound 10 µM) was 128 nM and the viability, T/C [1] was 65.1%. It also gave a viability, T/C [2] of 64.5%, a viability, T/C [3] of 52.3% and a viability, T/C [4] of 24.9%. For the same compound, the viability, T/C [5] was 12.7%, the viability, T/C [6] was 11.4% and the viability, T/C [7] was 62.2%. For the same compound, the viability, T/C [8] was 56.7%, the viability, T/C [9] was 46.5% and the viability, T/C [10] was 24.5%. The viability, T/C [11] was 14.3%, the viability, T/C [12] was 12.1% and the viability, T/C [13] was 54.1%. For the same compound, the viability, T/C [14] was 56.1%, the viability, T/C [15] was 46.6% and the viability, T/C [16] was 23.7%. For the same compound, the viability, T/C [17] was 12.7%, the viability, T/C [18] was 11.8% and the viability, T/C [19] was 61%. The viability, T/C [20] was 51.6%, the viability, T/C [21] was 44.8% and the viability, T/C [22] was 22.6%. The viability, T/C [23] was 13.3%, the viability, T/C [24] was 12.7% and the viability, T/C [25] was 56.3%. The viability, T/C [26] was 52%, the viability, T/C [27] was 41.2% and the viability, T/C [28] was 24.2%. For the same compound, the viability, T/C [29] was 14% and the viability, T/C [30] was 12.1%.
CCN(c1cc(-c2ccc(CN3CCOCC3)cc2)cc(C(=O)NCc2c(C)cc(C)[nH]c2=O)c1C)C1CCOCC1 + NC1CCC(NC2CC2c2ccccc2)CC1 was tested, and the IC50 (second compound 0.1 µM) was 953 nM, the IC50 (second compound 0.316 µM) was 694 nM and the IC50 (second compound 1 µM) was 647 nM. For the same compound, the IC50 (second compound 3.16 µM) was 649 nM, the IC50 (second compound 10 µM) was 453 nM and the viability, T/C [31] was 67.3%. For the same compound, the viability, T/C [32] was 69.7%, the viability, T/C [33] was 76.6% and the viability, T/C [34] was 63.5%. For the same compound, the viability, T/C (second compound 0.1 µM, first compound 0.949 µM) was 50.6%, the viability, T/C (second compound 0.1 µM, first compound 3 µM) was 21.3% and the viability, T/C [35] was 77.2%. It also gave a viability, T/C [36] of 71.7%, a viability, T/C [37] of 66.6% and a viability, T/C [38] of 66.8%. It also gave a viability, T/C (second compound 0.316 µM, first compound 0.949 µM) of 44%, a viability, T/C (second compound 0.316 µM, first compound 3 µM) of 18.4% and a viability, T/C [39] of 60%. It also gave a viability, T/C [40] of 61.8%, a viability, T/C [41] of 67.6% and a viability, T/C [42] of 61%. The viability, T/C (second compound 1 µM, first compound 0.949 µM) was 44.3%, the viability, T/C (second compound 1 µM, first compound 3 µM) was 17.7% and the viability, T/C [43] was 59.8%. The viability, T/C [44] was 68.4%, the viability, T/C [45] was 68.1% and the viability, T/C [46] was 57.6%. For the same compound, the viability, T/C (second compound 3.16 µM, first compound 0.949 µM) was 45.6%, the viability, T/C (second compound 3.16 µM, first compound 3 µM) was 18.5% and the viability, T/C [47] was 62.8%. For the same compound, the viability, T/C [48] was 64.3%, the viability, T/C [49] was 63.4% and the viability, T/C [50] was 56.8%. For the same compound, the viability, T/C (second compound 10 µM, first compound 0.949 µM) was 37.4% and the viability, T/C (second compound 10 µM, first compound 3 µM) was 15.8%.
Nc1ncn(C2CC(O)C(CO)S2)c(=O)n1 (stereo not given) + NC1CCC(NC2CC2c2ccccc2)CC1 was tested, and the IC50 (second compound 0.1 µM) was 43.8 nM, the IC50 (second compound 0.316 µM) was 40 nM and the IC50 (second compound 1 µM) was 37.2 nM. The IC50 (second compound 3.16 µM) was 34.6 nM, the IC50 (second compound 10 µM) was 30.7 nM and the viability, T/C (second compound 0.1 µM, first compound 0.000949 µM) was 68.9%. It also gave a viability, T/C (second compound 0.1 µM, first compound 0.003 µM) of 62%, a viability, T/C [31] of 63.2% and a viability, T/C [32] of 57.1%. For the same compound, the viability, T/C [33] was 36.8%, the viability, T/C [34] was 10.9% and the viability, T/C (second compound 0.316 µM, first compound 0.000949 µM) was 66.8%. For the same compound, the viability, T/C (second compound 0.316 µM, first compound 0.003 µM) was 64.3%, the viability, T/C [35] was 59.1% and the viability, T/C [36] was 57.2%. The viability, T/C [37] was 33.2%, the viability, T/C [38] was 11.2% and the viability, T/C (second compound 1 µM, first compound 0.000949 µM) was 52.2%. It also gave a viability, T/C (second compound 1 µM, first compound 0.003 µM) of 62.7%, a viability, T/C [39] of 55.2% and a viability, T/C [40] of 53.9%. For the same compound, the viability, T/C [41] was 33.6%, the viability, T/C [42] was 10.3% and the viability, T/C (second compound 3.16 µM, first compound 0.000949 µM) was 55.1%. The viability, T/C (second compound 3.16 µM, first compound 0.003 µM) was 61.9%, the viability, T/C [43] was 58.6% and the viability, T/C [44] was 52.9%. It also gave a viability, T/C [45] of 28%, a viability, T/C [46] of 11% and a viability, T/C (second compound 10 µM, first compound 0.000949 µM) of 56.3%. For the same compound, the viability, T/C (second compound 10 µM, first compound 0.003 µM) was 61.2%, the viability, T/C [47] was 59.6% and the viability, T/C [48] was 49.6%. For the same compound, the viability, T/C [49] was 28.2% and the viability, T/C [50] was 11.5%.
